The numbers were not newly measured in US11564888B2, “Extended release compositions comprising trihexyphenidyl” (KASHIV SPECIALTY PHARMACEUTICALS, LLC, priority 2018, dated 2023), which cites them from elsewhere.

For the data set the following is noted: in vivo.

As for `OC(CCN1CCCCC1)(c1ccccc1)C1CCCCC1` (stereo not drawn) [trihexyphenidyl, α-cyclohexyl-α-phenyl-1-piperidinepropanol], the plasma half-life result is recorded as “about 3.7 hours”.
